Legend:
[1] = tested on: HDACs (HeLa nuclear extract); assay: HDAC deacetylation inhibition assay, HeLa nuclear extract with BOC-Ac-Lys-AMC substrate; format: biochemical, human; conditions: BOC-Ac-Lys-AMC substrate; for HDAC inhibition (%): compound at 100 µM; for IC50: read-out: IC50 values, HeLa nuclear extract
Protocol: With these N^ɛ-acetyl lysine derivatives in hand (schemes 1–3), we then did the pilot screening for general HDAC inhibitory activity at a compound's concentration of 100 µM. All tested compounds were subjected to the inhibition assay against the HDAC deacetylation reaction by using a HeLa nuclear extract as a source of HDACs and BOC-Ac-Lys-AMC as a substrate.
HDACS inhibition assay in vitro
In vitro HDACs inhibition assays were conducted as previously described. In brief, 4 μL of […]
(1μL), then fluorogenic substrate Boc-Lys(acetyl)-AMC (100 μM) and Buffer A (50 mM Tis-HCl pH=8.0, 150 mM NaCl, 30 mM KCl, 10 mM MgCl2) were added. After incubation at 37℃ for 1h, […]
And then incubation at 37℃ for 1h, the mixture was stopped by the addition of 50 μL of Buffer B (200mM HCl/300 mM Acetic acid), fluorescence intensity was measured using a microplate reader at excitation and emission wavelengths of 360 nm and 460 nm. The inhibition ratios were calculated from the fluorescence intensity readings of tested wells relative to those of control wells, […]
regression analysis of the concentration/inhibition data. All experiments were done in triplicate. […]

[2] = molecular target: T1, HDAC8 (Homo sapiens, UniProt Q9BY41); assay: HDAC subtype selectivity assay with subtype substrate, HDAC8; format: biochemical; conditions: read-out: HDAC Inhibition (%) HDAC8
T1 construct: Hela nuclear extract; endogenous in cells; host or cells: HeLa nuclear extract
T1 sequence (Q9BY41 1-377): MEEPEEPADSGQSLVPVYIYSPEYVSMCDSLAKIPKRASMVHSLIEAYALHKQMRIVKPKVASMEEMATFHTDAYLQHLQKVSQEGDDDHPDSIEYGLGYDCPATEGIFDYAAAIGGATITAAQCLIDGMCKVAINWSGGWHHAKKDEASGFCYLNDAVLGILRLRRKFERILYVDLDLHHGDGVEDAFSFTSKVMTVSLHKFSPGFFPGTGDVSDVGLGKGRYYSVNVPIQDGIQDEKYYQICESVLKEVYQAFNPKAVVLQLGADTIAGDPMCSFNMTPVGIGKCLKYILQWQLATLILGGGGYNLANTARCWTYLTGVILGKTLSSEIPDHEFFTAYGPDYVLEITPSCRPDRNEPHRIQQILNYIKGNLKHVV

[3] = tested on: A549 cells; assay: MTS cell proliferation assay, A549; format: cell-based, human
Protocol: (§1) Because of the great anti-tumour potential of HDAC inhibitors, we did the antiproliferative evaluation of 18c against K562 cells, A549 cells and HepG2 cells using MTS assay as previously described. […]
(§2) The rate of cell survival under the action of test substances was evaluated by an improved MTS assay as previously described. In brief, A549 (5000 cells / well) , HepG2 (5000 cells / well), HEK293 (5000 cells / well) and K562 (1 ×10^4 cells/well) cell lines were seeded into 96-well plates in 100 µL medium. After overnight incubation, each well was added with different […]
(§3) 48 hours 5ul of MTS reagent solution was added into each well and the cells were incubated for another 4 hours at 37℃ under 5% CO2 environment. The absorbance was measured at 490 nm in […]
(§4) a Microplate to determine the cell viability. The absorbance was directly proportional to the number of viable cells. All experiments were done in triplicate. […]
(§5) calculate and compare their selective index. […]
(§6) Unbound antibodies

[4] = tested on: K562 cells; assay: MTS cell proliferation assay, K562; format: cell-based, human
Protocol: as §1, §2, §3, §4, §5, §6

[5] = tested on: HepG2 cells; assay: MTS cell proliferation assay, HepG2; format: cell-based, human
Protocol: as §1, §2, §3, §4, §5, §6

[6] = tested on: HEK293; assay: MTS cell proliferation assay, HEK293 (non-cancerous kidney cell); format: cell-based; conditions: Homo sapiens, HEK293; MTS assay, 48 hours; normal cells
Protocol: as §1, §2, §3, §4, §5, §6

[7] = Homo sapiens, MTS assay, 48 hours

O=C(/C=C/C(=O)NCCCC[C@H](NC(=O)OCc1ccccc1)C(=O)Nc1ccccc1)NO [Compound 13]
HDAC inhibition (%) [1]: 39.3 ± 3.1%

O=C(/C=C/c1cccnc1)NCCCC[C@H](NC(=O)OCc1ccccc1)C(=O)Nc1ccccc1 [Compound 14c]
HDAC inhibition (%) [1]: 51.0 ± 1.0%

COC(=O)CC(=O)NCCCC[C@H](NC(=O)OCc1ccccc1)C(=O)Nc1ccccc1 [Compound 15a]
HDAC inhibition (%) [1]: 19.4 ± 10.9%

O=C(N[C@@H](CCCCNC(=O)c1cccnc1)C(=O)Nc1ccccc1)OCc1ccccc1 [Compound 14a]
HDAC inhibition (%) [1]: 39.6 ± 0.4%

O=C(N[C@@H](CCCCNC(=O)c1ccc[nH]1)C(=O)Nc1ccccc1)OCc1ccccc1 [Compound 14d]
HDAC inhibition (%) [1]: 48.4 ± 4.4%

COC(=O)CCCCC(=O)NCCCC[C@H](NC(=O)OCc1ccccc1)C(=O)Nc1ccccc1 [Compound 15b]
HDAC inhibition (%) [1]: 2.9 ± 0.8%

O=C(CCC(=O)NCCCC[C@H](NC(=O)OCc1ccccc1)C(=O)Nc1ccccc1)NO [Compound 11]
IC50 [1]: 25.4 ± 1.35 µM | HDAC inhibition (%) [1]: 86.0 ± 3.0%

O=C(O)/C=C/C(=O)NCCCC[C@H](NC(=O)OCc1ccccc1)C(=O)Nc1ccccc1 [Compound 10]
HDAC inhibition (%) [1]: 38.7 ± 1.0%

O=C(N[C@@H](CCCCNCc1c[nH]c2ccccc12)C(=O)Nc1ccccc1)OCc1ccccc1 [Compound 14l]
HDAC inhibition (%) [1]: 3.1 ± 0.5%

O=C(O)CCC(=O)NCCCC[C@H](NC(=O)OCc1ccccc1)C(=O)Nc1ccccc1 [Compound 9]
HDAC inhibition (%) [1]: 37.5 ± 0.6%

O=C(N[C@@H](CCCCNC(=O)c1cnc2ccccc2c1)C(=O)Nc1ccccc1)OCc1ccccc1 [Compound 14h]
HDAC inhibition (%) [1]: 28.3 ± 4.6%

Cc1ccc(C(=O)NCCCC[C@H](NC(=O)OCc2ccccc2)C(=O)Nc2ccccc2)cn1 [Compound 14b]
HDAC inhibition (%) [1]: 39.2 ± 0.8%

Nc1ccccc1NC(=O)CC(=O)NCCCC[C@H](NC(=O)OCc1ccccc1)C(=O)Nc1ccccc1 [Compound 17a]
HDAC inhibition (%) [1]: 7.0 ± 0.4%

O=C(N[C@@H](CCCCNC(=O)c1c[nH]c2ccccc12)C(=O)Nc1ccccc1)OCc1ccccc1 [Compound 14j]
HDAC inhibition (%) [1]: 12.2 ± 6.5%

O=C(N[C@@H](CCCCNC(=O)c1csc2ccccc12)C(=O)Nc1ccccc1)OCc1ccccc1 [Compound 14n]
HDAC inhibition (%) [1]: 16.2 ± 2.0%

O=C(CS)NCCCC[C@H](NC(=O)OCc1ccccc1)C(=O)Nc1ccccc1 [Compound 14g]
HDAC inhibition (%) [1]: 10.3 ± 4.9%

Nc1ccccc1NC(=O)CCCCC(=O)NCCCC[C@H](NC(=O)OCc1ccccc1)C(=O)Nc1ccccc1 [Compound 17b]
HDAC inhibition (%) [1]: 69.3 ± 3.4%

O=C(CC1SC(=O)NC1=O)NCCCC[C@H](NC(=O)OCc1ccccc1)C(=O)Nc1ccccc1 (stereo partly drawn) [Compound 14o]
HDAC inhibition (%) [1]: 48.6 ± 0.5%

O=C(N[C@@H](CCCCNC(=O)C1=CCc2ccccc21)C(=O)Nc1ccccc1)OCc1ccccc1 [Compound 14k]
HDAC inhibition (%) [1]: 22.4 ± 0.2%

O=C(N[C@@H](CCCCNC(=O)c1cccs1)C(=O)Nc1ccccc1)OCc1ccccc1 [Compound 14f]
HDAC inhibition (%) [1]: 45.0 ± 0.4%

N[C@@H](Cc1c[nH]c2ccccc12)C(=O)NCCCC[C@H](NC(=O)OCc1ccccc1)C(=O)Nc1ccccc1 [Compound 14q]
HDAC inhibition (%) [1]: 36.2 ± 0.4%

Nc1ccccc1NC(=O)CCC(=O)NCCCC[C@H](NC(=O)OCc1ccccc1)C(=O)Nc1ccccc1 [Compound 12]
HDAC inhibition (%) [1]: 30.7 ± 3.7%

O=C(N[C@@H](CCCCNC(=O)c1coc2ccccc12)C(=O)Nc1ccccc1)OCc1ccccc1 [Compound 14m]
HDAC inhibition (%) [1]: 14.3 ± 0.5%

O=C(CCCCCCC(=O)Nc1ccccc1)NO [SAHA (1), Vorinostat, reference compound]
inhibition at 1 µM [2]: 41.19 ± 0.18%

O=C(O)CCCCC(=O)NCCCC[C@H](NC(=O)OCc1ccccc1)C(=O)Nc1ccccc1 [Compound 16b]
HDAC inhibition (%) [1]: 4.3 ± 0.5%

Nc1ccccc1NC(=O)CCCCCCC(=O)NCCCC[C@H](NC(=O)OCc1ccccc1)C(=O)Nc1ccccc1 [Compound 17c]
HDAC inhibition (%) [1]: 50.6 ± 6.9%

O=C(O)CC(=O)NCCCC[C@H](NC(=O)OCc1ccccc1)C(=O)Nc1ccccc1 [Compound 16a]
HDAC inhibition (%) [1]: 4.0 ± 1.7%

COC(=O)CCCCCCC(=O)NCCCC[C@H](NC(=O)OCc1ccccc1)C(=O)Nc1ccccc1 [Compound 15c]
HDAC inhibition (%) [1]: 7.1 ± 0.3%

O=C(O)CCCCCCC(=O)NCCCC[C@H](NC(=O)OCc1ccccc1)C(=O)Nc1ccccc1 [Compound 16c]
antiproliferative activity ([3]; 500 µM, MTS): no obvious antiproliferative activities | IC50 [3, 7]: > 500 µM | antiproliferative activity ([4]; 500 µM, MTS): no obvious antiproliferative activities | IC50 [4, 7]: > 500 µM | antiproliferative activity ([5]; 500 µM, MTS): no obvious antiproliferative activities | IC50 [5, 7]: > 500 µM | HDAC inhibition (%) [1]: 1.1 ± 0.4% | IC50 [6]: > 500 µM

O=C(CCCCC(=O)NCCCC[C@H](NC(=O)OCc1ccccc1)C(=O)Nc1ccccc1)NO [Compound 18b]
IC50 [1]: 10.4 ± 3.86 µM | HDAC inhibition (%) [1]: 99.9 ± 0.9%

O=C(N[C@@H](CCCCNC(=O)c1ccco1)C(=O)Nc1ccccc1)OCc1ccccc1 [Compound 14e]
HDAC inhibition (%) [1]: 54.0 ± 1.9%

O=C(N[C@@H](CCCCNC(=O)c1ccc2ncccc2c1)C(=O)Nc1ccccc1)OCc1ccccc1 [Compound 14i]
HDAC inhibition (%) [1]: 36.8 ± 1.1%

CC(C)(C)OC(=O)N[C@@H](Cc1c[nH]c2ccccc12)C(=O)NCCCC[C@H](NC(=O)OCc1ccccc1)C(=O)Nc1ccccc1 [Compound 14p]
HDAC inhibition (%) [1]: 24.7 ± 2.8%

Source: paper PMC6599804, “N^ɛ-acetyl lysine derivatives with zinc binding groups as novel HDAC inhibitors” (Royal Society Open Science, 2019)
